Test: xn = mol fraction of the nth substance listed
Conditions: 100 kPa

CCCCCCCC[n+]1ccccc1.[Br-] + CC(C)[C@H](NC(=O)CN)C(=O)O + O
Conditions	electrical conductivity [S/m]
288.15 K, x2 = 0.0008946, x1 = 0.00616	1.33
288.15 K, x2 = 0.0008949, x1 = 0.005884	1.29
288.15 K, x2 = 0.0008952, x1 = 0.005575	1.25
288.15 K, x2 = 0.0008955, x1 = 0.005248	1.21
288.15 K, x2 = 0.0008958, x1 = 0.004887	1.17
288.15 K, x2 = 0.0008961, x1 = 0.004507	1.12
288.15 K, x2 = 0.0008965, x1 = 0.004077	1.05
288.15 K, x2 = 0.0008969, x1 = 0.003608	0.964
288.15 K, x2 = 0.0008974, x1 = 0.003092	0.861
288.15 K, x2 = 0.0008979, x1 = 0.002527	0.74
288.15 K, x2 = 0.0008985, x1 = 0.001896	0.592
288.15 K, x2 = 0.0008988, x1 = 0.001509	0.493
288.15 K, x2 = 0.0008992, x1 = 0.001132	0.388
288.15 K, x2 = 0.0008995, x1 = 0.0007259	0.276
288.15 K, x2 = 0.001788, x1 = 0.005723	1.23
288.15 K, x2 = 0.001788, x1 = 0.005981	1.26
288.15 K, x2 = 0.001789, x1 = 0.005422	1.19
288.15 K, x2 = 0.00179, x1 = 0.004738	1.11
288.15 K, x2 = 0.00179, x1 = 0.005091	1.15
288.15 K, x2 = 0.001791, x1 = 0.004351	1.06
288.15 K, x2 = 0.001792, x1 = 0.003932	0.991
288.15 K, x2 = 0.001793, x1 = 0.002974	0.81
288.15 K, x2 = 0.001793, x1 = 0.003476	0.909
288.15 K, x2 = 0.001794, x1 = 0.002419	0.692
288.15 K, x2 = 0.001796, x1 = 0.001458	0.463
288.15 K, x2 = 0.001796, x1 = 0.001805	0.55
288.15 K, x2 = 0.001797, x1 = 0.0007114	0.261
288.15 K, x2 = 0.001797, x1 = 0.001099	0.365
293.15 K, x2 = 0.0008946, x1 = 0.006158	1.51
293.15 K, x2 = 0.0008949, x1 = 0.005882	1.47
293.15 K, x2 = 0.0008952, x1 = 0.005573	1.42
293.15 K, x2 = 0.0008955, x1 = 0.005248	1.38
293.15 K, x2 = 0.0008958, x1 = 0.004887	1.32
293.15 K, x2 = 0.0008961, x1 = 0.004505	1.27
293.15 K, x2 = 0.0008965, x1 = 0.004077	1.19
293.15 K, x2 = 0.0008969, x1 = 0.003608	1.1
293.15 K, x2 = 0.0008974, x1 = 0.003092	0.974
293.15 K, x2 = 0.0008979, x1 = 0.002527	0.84
293.15 K, x2 = 0.0008985, x1 = 0.001896	0.67
293.15 K, x2 = 0.0008988, x1 = 0.001509	0.557
293.15 K, x2 = 0.0008992, x1 = 0.001132	0.437
293.15 K, x2 = 0.0008995, x1 = 0.0007259	0.309
293.15 K, x2 = 0.001788, x1 = 0.005721	1.4
293.15 K, x2 = 0.001788, x1 = 0.005981	1.44
293.15 K, x2 = 0.001789, x1 = 0.00542	1.36
293.15 K, x2 = 0.00179, x1 = 0.004736	1.26
293.15 K, x2 = 0.00179, x1 = 0.005091	1.31
293.15 K, x2 = 0.001791, x1 = 0.004351	1.2
293.15 K, x2 = 0.001792, x1 = 0.003932	1.12
293.15 K, x2 = 0.001793, x1 = 0.002972	0.917
293.15 K, x2 = 0.001793, x1 = 0.003476	1.03
293.15 K, x2 = 0.001794, x1 = 0.002419	0.785
293.15 K, x2 = 0.001796, x1 = 0.001458	0.521
293.15 K, x2 = 0.001796, x1 = 0.001805	0.621
293.15 K, x2 = 0.001797, x1 = 0.0007114	0.293
293.15 K, x2 = 0.001797, x1 = 0.001099	0.411
298.15 K, x2 = 0.0008946, x1 = 0.006158	1.7
298.15 K, x2 = 0.0008949, x1 = 0.00588	1.65
298.15 K, x2 = 0.0008952, x1 = 0.005573	1.6
298.15 K, x2 = 0.0008955, x1 = 0.005246	1.55
298.15 K, x2 = 0.0008958, x1 = 0.004885	1.49
298.15 K, x2 = 0.0008961, x1 = 0.004505	1.43
298.15 K, x2 = 0.0008965, x1 = 0.004077	1.34
298.15 K, x2 = 0.0008969, x1 = 0.003608	1.23
298.15 K, x2 = 0.0008974, x1 = 0.003092	1.1
298.15 K, x2 = 0.0008979, x1 = 0.002527	0.942
298.15 K, x2 = 0.0008985, x1 = 0.001896	0.751
298.15 K, x2 = 0.0008988, x1 = 0.001509	0.623
298.15 K, x2 = 0.0008992, x1 = 0.001132	0.489
298.15 K, x2 = 0.0008995, x1 = 0.0007259	0.343
298.15 K, x2 = 0.001788, x1 = 0.005721	1.59
298.15 K, x2 = 0.001788, x1 = 0.00598	1.64
298.15 K, x2 = 0.001789, x1 = 0.00542	1.54
298.15 K, x2 = 0.00179, x1 = 0.004736	1.42
298.15 K, x2 = 0.00179, x1 = 0.005091	1.49
298.15 K, x2 = 0.001791, x1 = 0.004349	1.35
298.15 K, x2 = 0.001792, x1 = 0.003932	1.27
298.15 K, x2 = 0.001793, x1 = 0.002972	1.03
298.15 K, x2 = 0.001793, x1 = 0.003476	1.17
298.15 K, x2 = 0.001794, x1 = 0.002419	0.883
298.15 K, x2 = 0.001796, x1 = 0.001458	0.586
298.15 K, x2 = 0.001796, x1 = 0.001805	0.699
298.15 K, x2 = 0.001797, x1 = 0.0007114	0.326
298.15 K, x2 = 0.001797, x1 = 0.001099	0.462
303.15 K, x2 = 0.0008946, x1 = 0.006155	1.91
303.15 K, x2 = 0.0008949, x1 = 0.005878	1.86
303.15 K, x2 = 0.0008952, x1 = 0.005571	1.8
303.15 K, x2 = 0.0008955, x1 = 0.005244	1.74
303.15 K, x2 = 0.0008958, x1 = 0.004883	1.67
303.15 K, x2 = 0.0008961, x1 = 0.004503	1.6
303.15 K, x2 = 0.0008965, x1 = 0.004075	1.49
303.15 K, x2 = 0.0008969, x1 = 0.003606	1.38
303.15 K, x2 = 0.0008974, x1 = 0.003092	1.22
303.15 K, x2 = 0.0008979, x1 = 0.002527	1.05
303.15 K, x2 = 0.0008985, x1 = 0.001896	0.834
303.15 K, x2 = 0.0008988, x1 = 0.001509	0.689
303.15 K, x2 = 0.0008992, x1 = 0.001132	0.543
303.15 K, x2 = 0.0008995, x1 = 0.0007259	0.385
303.15 K, x2 = 0.001788, x1 = 0.005719	1.79
303.15 K, x2 = 0.001788, x1 = 0.005978	1.84
303.15 K, x2 = 0.001789, x1 = 0.005417	1.73
303.15 K, x2 = 0.00179, x1 = 0.004734	1.6
303.15 K, x2 = 0.00179, x1 = 0.005087	1.67
303.15 K, x2 = 0.001791, x1 = 0.004349	1.52
303.15 K, x2 = 0.001792, x1 = 0.00393	1.42
303.15 K, x2 = 0.001793, x1 = 0.002972	1.16
303.15 K, x2 = 0.001793, x1 = 0.003474	1.3
303.15 K, x2 = 0.001794, x1 = 0.002419	0.983
303.15 K, x2 = 0.001796, x1 = 0.001458	0.652
303.15 K, x2 = 0.001796, x1 = 0.001805	0.778
303.15 K, x2 = 0.001797, x1 = 0.0007114	0.361
303.15 K, x2 = 0.001797, x1 = 0.001099	0.512
308.15 K, x2 = 0.0008946, x1 = 0.006153	2.17
308.15 K, x2 = 0.0008949, x1 = 0.005877	2.11
308.15 K, x2 = 0.0008952, x1 = 0.00557	2.04
308.15 K, x2 = 0.0008955, x1 = 0.005243	1.95
308.15 K, x2 = 0.0008958, x1 = 0.004881	1.86
308.15 K, x2 = 0.0008961, x1 = 0.004503	1.77
308.15 K, x2 = 0.0008965, x1 = 0.004075	1.66
308.15 K, x2 = 0.0008969, x1 = 0.003606	1.52
308.15 K, x2 = 0.0008974, x1 = 0.003092	1.35
308.15 K, x2 = 0.0008979, x1 = 0.002525	1.15
308.15 K, x2 = 0.0008985, x1 = 0.001896	0.905
308.15 K, x2 = 0.0008988, x1 = 0.001509	0.753
308.15 K, x2 = 0.0008992, x1 = 0.001132	0.6
308.15 K, x2 = 0.0008995, x1 = 0.0007259	0.446
308.15 K, x2 = 0.001788, x1 = 0.005717	2
308.15 K, x2 = 0.001788, x1 = 0.005974	2.06
308.15 K, x2 = 0.001789, x1 = 0.005415	1.94
308.15 K, x2 = 0.00179, x1 = 0.004732	1.78
308.15 K, x2 = 0.00179, x1 = 0.005087	1.86
308.15 K, x2 = 0.001791, x1 = 0.004348	1.68
308.15 K, x2 = 0.001792, x1 = 0.00393	1.58
308.15 K, x2 = 0.001793, x1 = 0.002972	1.28
308.15 K, x2 = 0.001793, x1 = 0.003474	1.44
308.15 K, x2 = 0.001794, x1 = 0.002419	1.09
308.15 K, x2 = 0.001796, x1 = 0.001456	0.714
308.15 K, x2 = 0.001796, x1 = 0.001805	0.853
308.15 K, x2 = 0.001797, x1 = 0.0007114	0.409
308.15 K, x2 = 0.001797, x1 = 0.001099	0.567

— the CheMixHub ionic liquid set
